According to patent US20040209914A1, “Aromatic sulfone hydroxamic acids and their use as protease inhibitors” (priority 2000, published 2004):
Structures can show the parent of a compound that is named as a salt.

Legend:
[1] = target: T1, Recombinant human MMP-2 (Homo sapiens, UniProt P08253); assay: biochemical; conditions: fluorogenic MCA-peptide substrate, pH 7.5, room temperature; read-out: MMP-2 IC50
T1 construct: made in house
T1 sequence (P08253 110-660): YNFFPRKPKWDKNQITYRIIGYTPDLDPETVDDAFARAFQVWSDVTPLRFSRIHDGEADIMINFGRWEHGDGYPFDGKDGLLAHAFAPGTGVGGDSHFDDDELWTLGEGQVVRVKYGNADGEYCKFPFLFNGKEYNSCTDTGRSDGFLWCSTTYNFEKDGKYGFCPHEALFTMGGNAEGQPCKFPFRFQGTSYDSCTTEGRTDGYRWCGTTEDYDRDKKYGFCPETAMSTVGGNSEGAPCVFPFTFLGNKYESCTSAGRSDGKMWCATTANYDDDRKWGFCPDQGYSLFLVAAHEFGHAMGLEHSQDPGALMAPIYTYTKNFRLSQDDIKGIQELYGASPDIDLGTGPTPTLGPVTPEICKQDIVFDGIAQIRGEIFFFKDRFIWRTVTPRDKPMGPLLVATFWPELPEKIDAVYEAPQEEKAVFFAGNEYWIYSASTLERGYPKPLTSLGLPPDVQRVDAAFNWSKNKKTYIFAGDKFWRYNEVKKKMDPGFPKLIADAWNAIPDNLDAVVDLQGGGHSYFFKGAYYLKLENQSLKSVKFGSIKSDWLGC
Method: (§1) Recombinant human MMP-1, MMP-2, MMP-9, MMP-13, and were used in this assay. These enzymes were prepared in the Assignee's es following usual laboratory procedures. Specifics for preparing and e enzymes can be found in the scientific literature describing these See, e.g., Enzyme Nomenclature (Academic Press, San Diego, Calif., d the citations therein).
The MMP-2 was obtained from MMP-2 expressing transfected cells provided by Dr. Gregory Goldberg of Washington University.
(§2) The enzyme substrate was a methoxycoumarin-containing polypeptide having the following sequence:
(§3) MCA-ProLeuGlyLeuDpaAlaArgNH2
(§4) Here, “MCA” is methoxycoumarin and “Dpa” is 3-(2,4-dinitrophenyl)-L-2,3-diaminopropionyl alanine.
(§5) These solutions were then compared to a control (which contained equal amount of DMSO/buffer solution, but no hydroxamate compound) using Microfluor™ White Plates (Dynatech, Chantilly, Va.). Specifically, The MMPs were activated with APMA or trypsin. […] The control likewise was incubated at room temperature in separate plates with the MMP and 4 uM of the MMP substrate. […] Inhibition was measured as a reduction in fluorescent intensity as a function of inhibitor concentration using a Perkin Elmer (Norwalk, Conn.) L550 plate reader. The IC50's were then calculated from these measurements.

[2] = target: T2, Recombinant human MMP-13 (Homo sapiens, UniProt P45452); assay: biochemical; conditions: fluorogenic MCA-peptide substrate, pH 7.5, room temperature; read-out: MMP-13 IC50
T2 construct: made in house; host or cells: baculovirus / insect cells
Method: as §1
The expressed proenzyme was first purified over a heparin agarose column, and then over a chelating zinc chloride column. The proenzyme was then activated by APMA for use in the assay.
as §2, §3, §4, §5

Row | SMILES | IC50 [1] [nM] | IC50 [2] [nM]
1 | C[C@H]1C[C@H](C)CN(C(=O)C2CCN(c3ccc(S(=O)(=O)C4(C(=O)NO)CCNCC4)cc3)CC2)C1 (relative stereo) [Example 72, rel-4-[[4-[4-[[(3R,5R)-3,5-dimethyl-1-piperidinyl]carbonyl]-1-piperidinyl]phenyl]sulfonyl]-N-hydroxy-4-piperidinecarboxamide, monohydrochloride] | 10000 | –
2 | CN(C)CCN1CCN(C(=O)C2CCN(c3ccc(S(=O)(=O)C4(C(=O)NO)CCOCC4)cc3)CC2)CC1 [Example 19] | 10000 | –
3 | C[C@@H]1CN(C(=O)C2CCN(c3ccc(S(=O)(=O)C4(C(=O)NO)CCOCC4)cc3)CC2)C[C@H](C)O1 [Example 30] | > 10000 | 18.1
4 | C[C@@H]1C[C@H](C)CN(C(=O)C2CCN(c3ccc(S(=O)(=O)C4(C(=O)NO)CCNCC4)cc3)CC2)C1 [Example 74, rel-4-[[4-[4-[[(3R,5S)-3,5-dimethyl-1-piperidinyl]carbonyl]-1-piperidinyl]phenyl]sulfonyl]-N-hydroxy-4-piperidinecarboxamide, monohydrochloride] | 10000 | –
5 | CC1CC(C)CN(C(=O)C2CCN(c3ccc(S(=O)(=O)C4(C(=O)NO)CCN(C(=O)CN5CCN(CCN(C)C)CC5)CC4)cc3)CC2)C1 (stereo not drawn) [Example 111] | 10000 | –
6 | CC1CC(C)CN(C(=O)C2CCN(c3ccc(S(=O)(=O)C4(C(=O)NO)CCN(C(=O)CNCC(F)(F)F)CC4)cc3)CC2)C1 (stereo not drawn) [Example 113] | 10000 | –
7 | COCCN1CCC(C(=O)NO)(S(=O)(=O)c2ccc(N3CCC(C(=O)c4ccc(C=C(C)C)s4)CC3)cc2)CC1 [Example 122] | 106 | 0.1
8 | COc1ccc(C(=O)C2CCN(c3ccc(S(=O)(=O)C4(C(=O)NO)CCN(C(=O)c5ccco5)CC4)cc3)CC2)cc1 [Example 139] | 330 | 1.8
9 | COc1ccc(C(=O)C2CCN(c3ccc(S(=O)(=O)C4(C(=O)NO)CCNCC4)cc3)CC2)cc1 [Example 140] | 800 | 18.1
10 | O=C(NO)C1(S(=O)(=O)c2ccc(N3CCC(SCc4ccc(OC(F)(F)F)cc4)CC3)cc2)CCN(C2CC2)CC1 [Example 143] | 100 | 2.1
11 | O=C(NO)C1(S(=O)(=O)c2ccc(N3CCC(SCc4ccc(OC(F)(F)F)cc4)CC3)cc2)CCNCC1 [Example 146] | 200 | 4
12 | O=C(NO)C1(S(=O)(=O)c2ccc(N3CCC(SCc4ccccc4Cl)CC3)cc2)CCN(C2CC2)CC1 [Example 147] | 145 | 20
13 | O=C(NO)C1(S(=O)(=O)c2ccc(N3CCC(SCc4cccc(C(F)(F)F)c4)CC3)cc2)CCN(C2CC2)CC1 [Example 149] | 210 | 16.9
14 | C=CCN1CCC(C(=O)NO)(S(=O)(=O)c2ccc(N3CCC(C(=O)c4ccc(CCC)cc4)CC3)cc2)CC1 [Example 159] | 32.2 | 0.5
15 | C=CCN1CCC(C(=O)NO)(S(=O)(=O)c2ccc(N3CCC(C(=O)c4ccc(NC)cc4)CC3)cc2)CC1 [Example 161] | 235 | 0.3
16 | CCCc1ccc(C(=O)C2CCN(c3ccc(S(=O)(=O)C4(C(=O)NO)CCN(S(C)(=O)=O)CC4)cc3)CC2)cc1 [Example 165] | 1750 | 85.9
17 | CS(=O)(=O)N1CCC(C(=O)NO)(S(=O)(=O)c2ccc(N3CCC(C(=O)c4ccc5ccccc5c4)CC3)cc2)CC1 [Example 166] | > 10000 | 438
18 | CNc1ccc(C(=O)C2CCN(c3ccc(S(=O)(=O)C4(C(=O)NO)CCN(S(C)(=O)=O)CC4)cc3)CC2)cc1 [Example 167] | 2950 | 4.7
19 | CCN1CCC(C(=O)NO)(S(=O)(=O)c2ccc(N3CCC(C(=O)c4ccc(NC)cc4)CC3)cc2)CC1 [Example 172] | 649 | 3.1
20 | C#CCN1CCC(C(=O)NO)(S(=O)(=O)c2ccc(N3CCC(C(=O)c4ccc(NC)cc4)CC3)cc2)CC1 [Example 173] | 117 | 0.9
21 | O=C(c1ccc(CC2CCCCC2)cc1)C1CCN(c2ccc(S(=O)(=O)C3(C(=O)NO)CCN(C4CC4)CC3)cc2)CC1 [Example 198] | 2570 | 12
22 | COCCN1CCC(C(=O)NO)(S(=O)(=O)c2ccc(N3CCC(C(=O)c4ccc(OCCC5CCCCC5)cc4)CC3)cc2)CC1 [Example 228] | 155 | 19.5
23 | COCCN1CCC(C(=O)NO)(S(=O)(=O)c2ccc(N3CCC(C(=O)c4ccc(CO)cc4)CC3)cc2)CC1 [Example 238] | 62.1 | 1.8

Row | SMILES | IC50 [1] [nM] | IC50 [2] [nM]
24 | COCCN1CCC(C(=O)NO)(S(=O)(=O)c2ccc(N3CCC(C(=O)c4ccc(COCC5CC5)cc4)CC3)cc2)CC1 [Example 239] | 75.8 | 0.6
25 | COCCN1CCC(C(=O)NO)(S(=O)(=O)c2ccc(N3CCC(C(=O)c4ccc(CN5CCOCC5)cc4)CC3)cc2)CC1 [Example 240] | 86 | 2.8
26 | COCCN1CCC(C(=O)NO)(S(=O)(=O)c2ccc(N3CCC(C(=O)c4ccc(CCCC(C)O)cc4)CC3)cc2)CC1 (stereo not drawn) [Example 244] | – | 0.2
27 | COCCN1CCC(C(=O)NO)(S(=O)(=O)c2ccc(N3CCC(C(=O)c4ccc(CCC(C)O)cc4)CC3)cc2)CC1 (stereo not drawn) [Example 245] | 38.6 | 1.1
28 | COCCN1CCC(C(=O)NO)(S(=O)(=O)c2ccc(N3CCC(C(=O)c4ccc(OC(C)C)c(F)c4)CC3)cc2)CC1 [Example 250] | 107 | 2.1
29 | COCCN1CCC(C(=O)NO)(S(=O)(=O)c2ccc(N3CCC(C(=O)c4ccc(COC)s4)CC3)cc2)CC1 [Example 252] | 14.3 | 0.4
30 | COCCN1CCC(C(=O)NO)(S(=O)(=O)c2ccc(N3CCC(Sc4nccs4)CC3)cc2)CC1 [Example 256] | 35.4 | 7.5
31 | COCCN1CCC(C(=O)NO)(S(=O)(=O)c2ccc(N3CCC(c4nc5ccccc5o4)CC3)cc2)CC1 [Example 258] | 45.4 | 14.1
32 | O=C(NO)C1(S(=O)(=O)c2ccc(N3CCC(c4ccc(F)cc4)CC3)cc2)CCN(C2CC2)CC1 [Example 259] | 0.6 | 0.4
33 | O=C(NO)C1(S(=O)(=O)c2ccc(N3CCC(c4ccc(Cl)cc4)CC3)cc2)CCN(C2CC2)CC1 [Example 261] | 1 | 0.8
34 | COCCN1CCC(C(=O)NO)(S(=O)(=O)c2ccc(N3CCC(c4ccc(F)cc4)CC3)cc2)CC1 [Example 262] | 1.7 | 1
35 | O=C(NO)C1(S(=O)(=O)c2ccc(N3CCC(c4ccc(Cl)cc4)CC3)cc2)CCN(CC2CC2)CC1 [Example 266] | – | 1.7
36 | Cc1ccc(C2CCN(c3ccc(S(=O)(=O)C4(C(=O)NO)CCN(CC5CC5)CC4)cc3)CC2)cc1 [Example 273] | 13.4 | 2.5
37 | COCCN1CCC(C(=O)NO)(S(=O)(=O)c2ccc(N3CCC(C(=O)c4ccc(C)cc4)CC3)c(Cl)c2)CC1 [Example 275] | 6740 | 184
38 | COCCN1CCC(C(=O)NO)(S(=O)(=O)c2ccc(N3CCC(C(=O)c4cccc(OC)c4)CC3)c(Cl)c2)CC1 [Example 276] | 2730 | 127
39 | COCCN1CCC(C(=O)NO)(S(=O)(=O)c2ccc(N3CCC(C(=O)c4cccc(C)c4)CC3)c(Cl)c2)CC1 [Example 277] | > 10000 | 274
40 | CN(C)c1ccc(C(=O)C2CCN(c3ccc(S(=O)(=O)C4(C(=O)NO)CCOCC4)cc3)CC2)cc1 [Example 320] | 10000 | –
41 | CCCCOc1ccc(C(=O)C2CCN(c3ccc(S(=O)(=O)C4(C(=O)NO)CCOCC4)cc3)CC2)cc1 [Example 329] | 1800 | 20
42 | Cn1ccc2cc(C(=O)C3CCN(c4ccc(S(=O)(=O)C5(C(=O)NO)CCOCC5)cc4)CC3)ccc21 [Example 340] | 10000 | –
43 | O=C(NO)C1(S(=O)(=O)c2ccc(N3CCC(c4nnc(-c5ccc(C(F)(F)F)cc5)o4)CC3)cc2)CCOCC1 [Example 375] | 2660 | 34.4
44 | O=C(NO)C1(S(=O)(=O)c2ccc(N3CCC(N4CCc5ccccc54)CC3)cc2)CCOCC1 [Example 383] | 382 | 36.9
45 | CN(C)Cc1ccc(C(=O)C2CCN(c3ccc(S(=O)(=O)C4(C(=O)NO)CCOCC4)cc3)CC2)cc1 [Example 384] | 52.9 | 2.9
